In EP3641564B1, “TASTE MODULATING FLAVORING SUBSTANCES” (Symrise AG, priority 2017, dated 2018):

What was measured:
[1] = Sensory panel rating of bitterness reduction of a caffeine solution; assay type: in vivo; details: for Bitterness rating with test substance (0-100 scale): expert panel mean, rating 0 [nicht bitter] to 100 [extrem bitter]; for % Reduktion des Bitter-Eindrucks (Signifikanz): 500 ppm Coffein, calculated from panel means versus solution without test substance
Text: (§1) Um die Reduzierung (d.h. die Maskierung oder Verminderung) des Bitter-Eindrucks in einer Probe zu quantifizieren, wurde die Bitterkeit einer Lösung enthaltend 500 ppm Coffein oder 300 ppm Theobromin oder 100 ppm Naringin von einer Expertengruppe jeweils mit einer Probe verglichen, die 500 ppm Coffein oder 300 ppm Theobromin oder 100 ppm Naringin und zusätzlich die jeweils angegebene Menge einer (hinsichtlich der Fähigkeit zur Bitter-Reduzierung) zu beurteilenden Substanz enthielt (Einstufung: 0 [nicht bitter] bis 100 [extrem bitter]). Für die Auswertung, d.h. die Berechnung der Reduktion (in %) des Bittereindrucks wurden jeweils die Durchschnittswerte der Einschätzungen der Expertengruppe verwendet. Die Ergebnisse sind in Tabelle 1 zusammengefasst: Tabelle 1: Bitterreduzierung einer Bitterstofflösung

[2] = Sensory panel rating of bitterness reduction of a theobromine solution; assay type: in vivo
Text: as §1

[3] = 10 ppm test substance in 500 ppm Coffein solution

| SMILES | Bitterness rating with test substance (0-100 scale) [1, 3] | % Reduktion des Bitter-Eindrucks (Signifikanz) ([1]; 10 ppm test substance) | Bitterness rating with test substance (0-100 scale) ([1]; 25 ppm test substance in 500 ppm Coffein solution) | % Reduktion des Bitter-Eindrucks (Signifikanz) ([1]; 25 ppm test substance) | Bitter-Eindruck (0-100) mit Testsubstanz ([2]; 25 ppm test substance in 300 ppm Theobromin solution, expert panel mean, rating 0 [nicht bitter] to 100 [extrem bitter]) | % Reduktion des Bitter-Eindrucks (Signifikanz) ([2]; 25 ppm test substance, 300 ppm Theobromin, calculated from panel means versus solution without test substance) |
| --- | --- | --- | --- | --- | --- | --- |
| COc1ccc(C(O)Cc2cccc(O)c2C(=O)O)cc1O (single isomer, unassigned) [Substanz (3), 2-Hydroxy-6-[2-hydroxy-2-(3-hydroxy-4-methoxyphenyl)ethyl]benzoesäure] | 41.25 + 21.83 | 14.0 % (p = 0.29) | 38.85 + 19.19 | 26.5 % (p < 0.05) | 39.76 ± 20.91 | 16.5 % (p = 0.21) |
| COc1ccc(/C=C/c2cccc(O)c2C(=O)O)cc1O [Substanz (6), 2-Hydroxy-6-[(E)-2-(3-hydroxy-4-methoxyphenyl)vinyl]benzoesäure] | 37.50 ± 18.84 | 18.3 % (p = 0.15) | – | – | – | – |
